Test results published in BigSolDB 2.1.

O=C(Nc1ccc(Cl)cc1)Nc1ccc(Cl)c(Cl)c1
solubility (mole fraction)
Settings	288.15 K	293.15 K	298.15 K	303.15 K	308.15 K	313.15 K	318.15 K
in ethylene glycol	4.25e-06	5.89e-06	8.3e-06	1.02e-05	1.38e-05	2.14e-05	2.64e-05
in water	1.96e-09	2.38e-09	2.85e-09	3.78e-09	5.72e-09	7.48e-09	9.28e-09
